# Earlier results as cited in patent publication US20200069728A1, “HYPOCHLOROUS ACID BASED EYE DROP AND OPHTHALMIC COMPOSITION” (priority 2018, published 2020).
# Conditions: non-stabilized hypochlorous acid, background statement
smiles,measurement,value
OCl [hypochlorous acid],potency lost per day,1-2%
